Assay results reported in article PMC2957673 (Cancer chemotherapy and pharmacology, 2010).

How the values were obtained:
[1] = system: patients with advanced solid tumors; assay: Phase I dose escalation: MTD and DLT of flavopiridol with FOLFIRI; format: in vivo, human
[2] = Flavopiridol plasma pharmacokinetics; format: in vivo; conditions: human, intravenous
[3] = system: patients with refractory colorectal cancer; conditions: combined with irinotecan at 125 mg/m^2 given weekly for 4 of every 6 weeks; cited from earlier work
melanoma = conditions: single agent; 16 patients; cited from earlier work
[4] = in combination with flavopiridol
[5] = split-dose schedule (MTD2): 30-min bolus followed by 4-h infusion

Compound: O=c1[nH]cc(F)c(=O)[nH]1 [5FU, fluorouracil]
- established MTD (FOLFIRI component), bolus [1, 4]: 400 mg/m^2
- established MTD (FOLFIRI component), over 48 h [1, 4]: 2,400 mg/m^2

Compound: Nc1nc2c(c(=O)[nH]1)N(C=O)C(CNc1ccc(C(=O)N[C@@H](CCC(=O)O)C(=O)O)cc1)CN2 (some centres unmarked) [LV, leucovorin]
- established MTD (FOLFIRI component) [1, 4]: 400 mg/m^2

Compound: CN1CC[C@H](c2c(O)cc(O)c3c(=O)cc(-c4ccccc4Cl)oc23)[C@H](O)C1 [flavopiridol, Flavopiridol]
- MTD with FOLFIRI ([1]; flavopiridol over 1 h (bolus schedule, cohort 9, MTD1), every 2 weeks): 80 mg/m^2
- MTD with FOLFIRI, bolus part [1, 5]: 35 mg/m^2
- MTD with FOLFIRI, part over 4 h [1, 5]: 35 mg/m^2
- Cmax ([2]; Cmax, at MTDs, patients who experienced DLT): 3.48 µM
- Cmax ([2]; Mean Cmax, cycle 1, cohort 9: flavopiridol 80 mg/m^2, irinotecan 180 mg/m^2, n 6): 2.69 µM
- MTD of flavopiridol [3]: 50 mg/m^2
- objective responses (melanoma): no objective responses

Compound: CCc1c2c(nc3ccc(OC(=O)N4CCC(N5CCCCC5)CC4)cc13)-c1cc3c(c(=O)n1C2)COC(=O)[C@]3(O)CC [irinotecan]
- established MTD (FOLFIRI component) [1, 4]: 180 mg/m^2
